From patent publication US4452778A, “Synergistic antibacterial compositions and method of treatment of infections caused by multiple antibiotic-resistant organisms” (Eli Lilly and Company, priority 1981, dated 1984)
Where two headings read alike, the source gives them in different places.

What was measured:
[1] = single 1 mg/kg (i.m.), healthy volunteers; cited from earlier work
Pseudomonas maltophilia = assay: Checkerboard broth dilution synergy study (mic); format: cell-based; settings: Table II; for MIC: Stenotrophomonas maltophilia, read-out: mic, drug alone
Serratia marcescens = assay: Checkerboard broth dilution synergy study (mic); format: cell-based; settings: Table II; for MIC: Serratia marcescens, read-out: mic, drug alone
E. coli = assay: Checkerboard broth dilution synergy study (mic); format: cell-based; settings: Table II; for MIC: Escherichia coli, read-out: mic, drug alone
Acinetobacter sp. = assay: Checkerboard broth dilution synergy study (mic); format: cell-based; settings: Table II; for MIC: Acinetobacter, read-out: mic, drug alone
Klebsiella pneumoniae = assay: Checkerboard broth dilution synergy study (mic); format: cell-based; settings: Table II; for MIC: Klebsiella pneumoniae, read-out: mic, drug alone
Proteus vulgaris = assay: Checkerboard broth dilution synergy study (mic); format: cell-based; settings: Table II; for MIC: Proteus vulgaris, read-out: mic, drug alone
E. cloacae = assay: Checkerboard broth dilution synergy study (mic); format: cell-based; settings: Table II; for MIC: Enterobacter cloacae, read-out: mic, drug alone
Proteus mirabilis = assay: Checkerboard broth dilution synergy study (mic); format: cell-based; settings: Table II, strain Allen
Pseudomonas aeruginosa = assay: Checkerboard broth dilution synergy study (mic); format: cell-based; settings: Table II; for MIC: Pseudomonas aeruginosa, read-out: mic, drug alone
Proteus rettgeri = assay: Checkerboard broth dilution synergy study (mic); format: cell-based; settings: Table II, strain 65

SMILES: NC[C@H]1O[C@H](O[C@H]2[C@H](O)[C@@H](O[C@H]3O[C@H](CO)[C@@H](O)[C@H](N)[C@H]3O)[C@H](N)C[C@@H]2N)[C@H](N)C[C@@H]1O [tobramycin]
- peak serum concentrations [1]: 4.4 µg/mL
- MIC (Pseudomonas maltophilia; strain 10): 64 µg/mL
- MIC (Pseudomonas maltophilia; strain 11): 4 µg/mL
- MIC (Pseudomonas maltophilia; strain 505): 32 µg/mL
- mic of each drug in combination I + T (Pseudomonas maltophilia; strain 10): 8 µg/mL
- mic of each drug in combination I + T (Pseudomonas maltophilia; strain 11): 2 µg/mL
- mic of each drug in combination I + T (Pseudomonas maltophilia; strain 505): 0.5 µg/mL
- MIC (Serratia marcescens; strain 100): 16 µg/mL
- MIC (Serratia marcescens; strain 302-2): 16 µg/mL
- MIC (Serratia marcescens; strain 796): 64 µg/mL
- MIC (Serratia marcescens; strain 14142): > 64 µg/mL
- MIC (Serratia marcescens; strain Townsend): 32 µg/mL
- mic of each drug in combination I + T (Serratia marcescens; strain 100): 8 µg/mL
- mic of each drug in combination I + T (Serratia marcescens; strain 302-2): 1 µg/mL
- mic of each drug in combination I + T (Serratia marcescens; strain 796): 16 µg/mL
- mic of each drug in combination I + T (Serratia marcescens; strain 14142): 4 µg/mL
- mic of each drug in combination I + T (Serratia marcescens; strain Townsend): 0.5 µg/mL
- MIC (E. coli; strain 46-2): > 64 µg/mL
- MIC (E. coli; strain 77-3): 64 µg/mL
- MIC (E. coli; strain 136-3): 64 µg/mL
- MIC (E. coli; strain 1260): > 64 µg/mL
- MIC (E. coli; strain 1262): 16 µg/mL
- MIC (E. coli; strain Briley): 4 µg/mL
- MIC (E. coli; strain Dill): > 64 µg/mL
- mic of each drug in combination I + T (E. coli; strain 46-2): 4 µg/mL
- mic of each drug in combination I + T (E. coli; strain 77-3): 0.25 µg/mL
- mic of each drug in combination I + T (E. coli; strain 136-3): 4 µg/mL
- mic of each drug in combination I + T (E. coli; strain 1253): 4 µg/mL
- mic of each drug in combination I + T (E. coli; strain 1260): 0.5 µg/mL
- mic of each drug in combination I + T (E. coli; strain 1262): 8 µg/mL
- mic of each drug in combination I + T (E. coli; strain 1415): 8 µg/mL
- mic of each drug in combination I + T (E. coli; strain Briley): 8 µg/mL
- mic of each drug in combination I + T (E. coli; strain Dill): 4 µg/mL
- MIC (Acinetobacter sp.; strain 28-1): 0.5 µg/mL
- MIC (Acinetobacter sp.; strain 28-2): 4 µg/mL
- MIC (Acinetobacter sp.; strain 106): 1 µg/mL
- MIC (Acinetobacter sp.; strain 107): 4 µg/mL
- MIC (Acinetobacter sp.; strain 109): 1 µg/mL
- mic of each drug in combination I + T (Acinetobacter sp.; strain 28-1): 0.5 µg/mL
- mic of each drug in combination I + T (Acinetobacter sp.; strain 28-2): 0.5 µg/mL
- mic of each drug in combination I + T (Acinetobacter sp.; strain 106): 0.5 µg/mL
- mic of each drug in combination I + T (Acinetobacter sp.; strain 107): 0.5 µg/mL
- mic of each drug in combination I + T (Acinetobacter sp.; strain 109): 0.5 µg/mL
- MIC (Klebsiella pneumoniae; strain 130): 16 µg/mL
- MIC (Klebsiella pneumoniae; strain 214-1): 32 µg/mL
- MIC (Klebsiella pneumoniae; strain 463): 16 µg/mL
- MIC (Klebsiella pneumoniae; strain 512): > 64 µg/mL
- MIC (Klebsiella pneumoniae; strain 933): 32 µg/mL
- MIC (Klebsiella pneumoniae; strain 1204-2): > 64 µg/mL
- mic of each drug in combination I + T (Klebsiella pneumoniae; strain 130): 0.5 µg/mL
- mic of each drug in combination I + T (Klebsiella pneumoniae; strain 214-1): 0.03 µg/mL
- mic of each drug in combination I + T (Klebsiella pneumoniae; strain 463): < 0.015 µg/mL
- mic of each drug in combination I + T (Klebsiella pneumoniae; strain 512): 0.06 µg/mL
- mic of each drug in combination I + T (Klebsiella pneumoniae; strain 933): 0.5 µg/mL
- mic of each drug in combination I + T (Klebsiella pneumoniae; strain 1204-2): 0.03 µg/mL
- MIC (Proteus vulgaris; strain 363): 64 µg/mL
- MIC (Proteus vulgaris; strain Shide): 32 µg/mL
- mic of each drug in combination I + T (Proteus vulgaris; strain 363): 1 µg/mL
- mic of each drug in combination I + T (Proteus vulgaris; strain Shide): 1 µg/mL
- MIC (E. cloacae; strain 1246): 16 µg/mL
- MIC (E. cloacae; strain 1253): 32 µg/mL
- MIC (E. cloacae; strain 1415): 32 µg/mL
- MIC (E. cloacae; strain B293): > 64 µg/mL
- mic of each drug in combination I + T (E. cloacae; strain 1246): 0.5 µg/mL
- mic of each drug in combination I + T (E. cloacae; strain 1253): 2 µg/mL
- mic of each drug in combination I + T (E. cloacae; strain 1415): < 0.015 µg/mL
- mic of each drug in combination I + T (E. cloacae; strain B293): 8 µg/mL
- MIC (Proteus mirabilis; Proteus mirabilis, read-out: mic, drug alone): 32 µg/mL
- mic of each drug in combination I + T (Proteus mirabilis): 1 µg/mL
- MIC (Pseudomonas aeruginosa; strain 84): 8 µg/mL
- MIC (Pseudomonas aeruginosa; strain 366): 4 µg/mL
- MIC (Pseudomonas aeruginosa; strain 424): 64 µg/mL
- MIC (Pseudomonas aeruginosa; strain 447): 64 µg/mL
- MIC (Pseudomonas aeruginosa; strain 1484): 64 µg/mL
- MIC (Pseudomonas aeruginosa; strain Davis): > 64 µg/mL
- mic of each drug in combination I + T (Pseudomonas aeruginosa; strain 84): 1 µg/mL
- mic of each drug in combination I + T (Pseudomonas aeruginosa; strain 366): 2 µg/mL
- mic of each drug in combination I + T (Pseudomonas aeruginosa; strain 424): 0.5 µg/mL
- mic of each drug in combination I + T (Pseudomonas aeruginosa; strain 447): < 0.5 µg/mL
- mic of each drug in combination I + T (Pseudomonas aeruginosa; strain 1484): 2 µg/mL
- mic of each drug in combination I + T (Pseudomonas aeruginosa; strain Davis): 1 µg/mL
- MIC (Proteus rettgeri; Providencia rettgeri, read-out: mic, drug alone): 64 µg/mL
- mic of each drug in combination I + T (Proteus rettgeri): 1 µg/mL
